The molecules below were run on Human Umbilical Vein Endothelial Cells (HUVECs) (assay: Inhibition against sandwich tube formation by vascular endothelial cells in response to stimulation by VEGF). Settings: HUVEC in collagen gel sandwich, stimulation by VEGF (25 ng/ml VEGF and 10 ng/ml EGF), 4th day, total tube length, read-out: IC50 (concentration required for 50% inhibition of tube formation).
Format: cell-based
How it was run: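 HUVECs were sandwiched between collagen gel layers in serum-free medium with 25 ng/ml VEGF plus 10 ng/ml EGF, with test substance added above the gel at 37 °C. On day 4 tubes were MTT-stained and total tube length measured by image analysis. IC50 is the concentration halving tube length relative to no-compound wells.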

Row | SMILES | IC50 [nM]
1 | COc1ccc(NC(=O)Nc2ccc(Oc3ccnc4cc(OCCCc5ccncc5)c(C#N)cc34)cc2)cc1 [Example 1] | 310

Each molecule was assayed against T1, VEGFR2 (Homo sapiens, UniProt P35968) (assay: Inhibition against VEGFR2 kinase (receptor tyrosine kinase activity, HTRF method)). Settings: His6-VEGFR2 cytoplasmic domain, biotin-poly(GT) substrate, ATP, 30° C. 10 minutes, read-out: IC50 (concentration required for 50% inhibition of VEGFR2 kinase activity).
T1 construct: coding for the cytoplasmic domain, beginning with lysine 791 and including the termination codon; made in house; host or cells: Sf9 insect cells (baculovirus, pFastBacHis)
T1 sequence (P35968 786-1356 limits assumed): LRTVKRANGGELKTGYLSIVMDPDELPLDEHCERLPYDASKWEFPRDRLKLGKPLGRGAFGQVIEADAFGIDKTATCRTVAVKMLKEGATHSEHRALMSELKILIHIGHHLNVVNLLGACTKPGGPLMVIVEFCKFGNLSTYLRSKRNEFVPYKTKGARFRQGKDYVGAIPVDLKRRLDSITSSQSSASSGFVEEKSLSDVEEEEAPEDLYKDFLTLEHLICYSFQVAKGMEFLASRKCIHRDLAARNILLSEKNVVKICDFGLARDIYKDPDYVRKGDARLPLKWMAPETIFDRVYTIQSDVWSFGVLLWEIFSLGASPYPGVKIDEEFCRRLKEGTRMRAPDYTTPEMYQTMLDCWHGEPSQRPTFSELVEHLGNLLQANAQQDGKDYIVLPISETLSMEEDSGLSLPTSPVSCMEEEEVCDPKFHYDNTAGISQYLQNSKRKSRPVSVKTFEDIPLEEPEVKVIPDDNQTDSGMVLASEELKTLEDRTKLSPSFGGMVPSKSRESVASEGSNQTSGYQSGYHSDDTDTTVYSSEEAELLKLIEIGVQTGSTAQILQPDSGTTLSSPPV
Format: biochemical
Source text: Measurement of Inhibition Against Receptor Tyrosine Kinase Activity
This assay is used to determine inhibition of a test substance on tyrosine kinase activity. DNA coding for the cytoplasmic domain of VEGFR2 is obtained by total cDNA synthesis (Edwards M, International Biotechnology Lab 5(3), 19–25, 1987) or by cloning. Expression in an appropriate expression system can produce a polypeptide with tyrosine kinase activity. […] For VEGFR2 (Genbank Accession No. L04947), the 1.7 kb DNA fragment described by Terman et al. (Oncogene, 6(9), 1677–1683, 1991), coding for the cytoplasmic domain, beginning with lysine 791 and including the termination codon, was isolated from a human placental cDNA library (purchased from Clontech Laboratories, Inc.) and cloned in a Baculovirus expression vector (pFastBacHis, purchased from GIBCO BRL) The recombinant construct was transfected into insect cells (Spondoptea frugiperda9 (Sf9)) to prepare a recombinant Baculovirus. (Instructions for preparation and use of recombinant Baculovirus maybe found in standard texts, such as “Bac-To-Bac Baculovirus Expression System” (GIBCO BRL).) The cytoplasmic fragment starting from lysine 398 (FGFR1, Genbank Accession No. X52833), the cytoplasmic fragment starting from lysine 558 (PDGFRβ, Genbank Accession No. M21616) or the cytoplasmic fragment starting from lysine 974 (HGFR, Genbank Accession No. J02958) may be cloned and expressed by the same method for use in assays for other tyrosine kinases. EGFR was purchased from Sigma Co. (Product No. E-2645).
For expression of the VEGFR2 tyrosine kinase, Sf9 cells were infected with the VEGFR2 recombinant virus and collected after 48 hours. The collected cells were rinsed with ice-cooled phosphate buffered saline (PBS) and then resuspended using 20 ml of ice-cooled Lysis Buffer (50 mM Tris-HCl (pH 8.5), 5 mM 2-mercaptoethanol, 100 mM KCl, 1 mM phenylmethylsulfonyl fluoride, 1% (v/v) NP-40) per 1.5×10^8 cells. The suspension was centrifuged at 12,000 rpm for 30 minutes at 4° C. and the supernatant was obtained.
The supernatant was added to a Ni—NTA agarose column (3 ml, purchased from Qiagen) equilibrated with Buffer A {20 mM Tris-HCl (pH 8.5), 5 mM 2-mercaptoethanol, 500 mM KCl, 20 mM imidazole, 10% (v/v) glycerol}. The column was washed with 30 ml of Buffer A, and then with 6 ml of Buffer B {20 mM Tris-HCl (pH 8.5), 5 mM 2-mercaptoethanol, 1M KCl, 10% (v/v) glycerol}, and finally with 6 ml of Buffer A. After washing, it was eluted with 6 ml of Buffer C {20 mM Tris-HCl (pH8.5), 5mM2-mercaptoethanol, 100 mMKCl, 100 mM imidazole, 10% (v/v) glycerol}. The eluate was placed on a dialysis membrane (purchased from Spectrum Laboratories) and dialyzed with a dialysis buffer {20 mM Tris-HCl (pH 7.5), 10% (v/v) glycerol, 1 mM dithiothreitol, 0.1 mM Na3VO4, 0.1 mM EGTA}. After dialysis, it was supplied for SDS-electrophoresis, and the recombinant protein (His6-VEGFR2, cytoplasmic domain of VEGFR2 fused with 6 histidine residues at the N-terminus) detected at a molecular weight of approximately 100 kDa with Coumassie Brilliant Blue staining was assayed using BSA (bovine serum albumin, purchased from Sigma Co.) as the standard substance, and stored at −80° C. until use. Using the same method for the cytoplasmic domains of FGFR1, PDGFRβ and HGFR yielded respective recombinant proteins fused with 6 histidine residues at the N-termini (His6-FGFR1, His6-PDGFRβ or His6-HGFR).
The tyrosine kinase reaction was conducted as follows. […]

Row | SMILES | IC50 [nM]
2 | COc1ccc(NC(=O)Nc2ccc(Oc3ccnc4cc(OCCCc5ccncc5)c(C#N)cc34)cc2)cc1 [Example 1] | 51
3 | CC(=O)Nc1cc(Oc2ccc(NC(=O)Nc3cccc(S(C)(=O)=O)c3)cc2)ncn1 [Example 556, N-(6-(4-(3-(3-Methylsulfonylphenyl)ureido)phenoxy)pyrimidin-4-yl)acetamide] | 14
4 | COCCNC(=O)c1cc2c(Oc3ccc(NC(=O)NC4CC4)c(Cl)c3)ccnc2cc1OC [Example 398, N6-(2-Methoxyethyl)-4-(3-chloro-4-(((cyclopropylamino)carbonyl)amino)phenoxy)-7-methoxy-6-quinolinecarboxamide] | 3.5
5 | CN1CCC(COc2cc3nccc(Oc4ccc(NC(=O)NC5CC5)c(Cl)c4)c3cc2C(N)=O)CC1 [Example 394, 4-(3-Chloro-4-(cyclopropylaminocarbonyl)aminophenoxy)-7-((1-methyl-4-piperidyl)methoxy)-6-quinolinecarboxamide] | 15
6 | O=C(Nc1ccc(Oc2ncnc3[nH]c(-c4ccccc4)cc23)cc1)NC1CC1 [Example 173, 1-Cyclopropyl-3-[4-(6-phenyl-7H-pyrrolo[2,3-d]pyrimidin-4-yloxy)phenyl]urea] | 356
7 | NC(=O)c1cc2c(Oc3ccc(NC(=O)NC4CC4)c(Cl)c3)ccnc2cc1OCCCO [Example 387, 4-(3-Chloro-4-(cyclopropylaminocarbonyl)aminophenoxy)-7-(3-hydroxypropoxy)-6-quinolinecarboxamide] | 4.1
8 | COc1cc2nccc(Oc3ccc(N(C)C(=O)Nc4ccc(F)cc4)cc3)c2cc1C(=O)NC1CC1 [Example 435] | 22
9 | COc1cc2nccc(Oc3ccc(NC(=O)Nc4ccccc4)cc3)c2cc1C#N [Example 37, N-[4-(6-cyano-7-methoxyquinolin-4-yloxy)phenyl]-N′-phenylurea] | 22
10 | COCCOc1cc2nccc(Oc3ccc(NC(=O)Nc4cccc(S(C)(=O)=O)c4)cc3)c2cc1C#N [Example 21, N-(4-(6-Cyano-7-(2-methoxyethoxy)-4-quinolyl)oxyphenyl)-N′-(3-(methylsulfonyl)phenyl)urea] | 4.3
11 | CONC(=O)c1cc2c(Oc3ccc(N(C)C(=O)Nc4ccc(F)cc4)cc3)ccnc2cc1OC [Example 437, N6-Methoxy-4-(4-(((4-fluoroanilino)carbonyl)(methyl)amino)phenoxy)-7-methoxy-6-quinolinecarboxamide] | 9.9
12 | N#Cc1cc2c(Oc3ccc(NC(=O)Nc4ccc(F)cc4F)c(F)c3)ccnc2cc1OCCN1CCOCC1 [Example 54, N-(4-(6-Cyano-7-(2-(4-morpholino)ethoxy)-4-quinolyl)oxy-2-fluorophenyl)-N′-(2,4-difluorophenyl)urea] | 15
13 | COCCOc1cc2nccc(Oc3ccc(NC(=O)Nc4ccc(F)cc4)cc3)c2cc1C#N [Example 10, N-(4-(6-cyano-7-(2-methoxyethoxy)-4-quinolyl)oxyphenyl)-N′-(4-fluorophenyl)urea] | 4.9
14 | COc1cc2nccc(Oc3ccc(NC(=O)NC4CC4)c(Cl)c3)c2cc1C(=O)NCCO [Example 410, N6-(2-Hydroxyethyl)-4-(3-chloro-4-(((cyclopropylamino)carbonyl)amino)phenoxy)-7-methoxy-6-quinolinecarboxamide] | 2.2
15 | N#Cc1cc2c(Oc3ccc(NC(=O)Nc4ccc(F)cc4)cc3)ccnc2cc1OCCCN1CCOCC1 [Example 31] | 17
16 | COCCOc1cc2nccc(Oc3ccc(NC(=O)Nc4ccccc4)c(F)c3)c2cc1C#N [Example 99, N-(4-(6-Cyano-7-(2-methoxyethoxy)-4-quinolyl)oxy-2-fluorophenyl)-N′-phenylurea] | 8.6
17 | O=C(Nc1ccc(F)cc1)Nc1ccc(Oc2ccnc(NC(=O)c3cccnc3)c2)cc1 [Example 465, N-[4-(2-Nicotinoylaminopyridin-4-yl)oxyphenyl]-N′-(4-fluorophenyl)urea] | 13
18 | COCCOc1cc2nccc(Sc3ccc(NC(=O)Nc4cccc(C#N)c4)s3)c2cc1C#N [Example 260, 1-{5-[6-Cyano-7-(2-methoxyethoxy)quinolin-4-ylsulfanyl]-thiophen-2-yl}-3-(3-cyanophenyl)-urea] | 11
19 | COc1cc2nccc(Oc3ccc(NC(=O)NCCCSC)c(F)c3)c2cc1C(N)=O [Example 353, 4-(3-Fluoro-4-((3-methylthiopropylamino)carbonyl)aminophenoxy)-7-methoxy-6-quinolinecarboxamide] | 2.2
20 | COCCOc1cc2nccc(Oc3ccc(NC(=O)NCCF)c(F)c3)c2cc1C(N)=O [Example 364, 4-(4-(3-Fluoro(2-fluoroethylamino)carbonyl)aminophenoxy)-7-(2-methoxyethoxy)-6-quinolinecarboxamide] | 8.1
21 | O=C(Nc1ccc(F)cc1)Nc1ccc(Oc2ccnc3[nH]c(=O)ccc23)cc1 [Example 183, N-(4-Fluorophenyl)-N′-{4-[(7-oxo-7,8-dihydro[1,8]naphthyridin-4-yl)oxy]phenyl}urea] | 29
22 | COCCOc1cc2nccc(Oc3ccc(NC(=O)Nc4cccc(O)c4)cc3)c2cc1C#N [Example 15, N-(4-(6-Cyano-7-(2-methoxyethoxy)-4-quinolyl)oxyphenyl)-N′-(3-hydroxyphenyl)urea] | 8.7
23 | CS(=O)(=O)NCCCOc1cc2nccc(Oc3ccc(NC(=O)Nc4ccc(F)cc4)c(F)c3)c2cc1C#N [Example 111, N-(3-(6-Cyano-4-(3-fluoro-4-((4-fluoroanilino)carbonyl)aminophenoxy)-7-quinolyl)oxypropyl)methanesulfonamide] | 21
24 | CCN(CC)CCCOc1cc2nccc(Oc3ccc(NC(=O)Nc4ccc(F)cc4)cc3)c2cc1C#N [Example 30, N-(4-(6-Cyano-7-(3-(diethylamino)propoxy)-4-quinolyloxy)phenyl)-N′-(4-fluorophenyl)urea] | 22
25 | COCCOc1cc2nccc(Oc3ccc(NC(=O)NCCCF)c(F)c3)c2cc1C(N)=O [Example 365] | 5.4
26 | O=C1CCc2c(Oc3ccc(NC(=O)Nc4ccc(F)cc4)cc3)ccnc2N1 [Example 182, N-(4-Fluorophenyl)-N′-{4-[(7-oxo-5,6,7,8-tetrahydro[1,8]naphthyridin-4-yl)oxy]phenyl}urea] | 71
27 | COCCOc1cc2nccc(Oc3ccc(NC(=O)Nc4cccc(SC)c4)c(F)c3)c2cc1C#N [Example 33, N-(4-(6-Cyano-7-(2-methoxyethoxy)-4-quinolyl)oxy-2-fluorophenyl)-N′-(3-(methylsulfanyl)phenyl)urea] | 6.9
28 | COCCOc1cc2nccc(Oc3ccc(NC(=O)Nc4cccc(OC)c4)cc3)c2cc1C#N [Example 14, N-(4-(6-Cyano-7-(2-methoxyethoxy)-4-quinolyl)oxyphenyl)-N′-(3-methoxyphenyl)urea] | 2.7
29 | COc1cc2nccc(Oc3ccc(NC(=O)NC4CC4)c(Cl)c3)c2cc1C(=O)NCC1OCCO1 [Example 413, N6-(1,3-Dioxolan-2-ylmethyl)-4-(3-chloro-4-(((cyclopropylamino)carbonyl)amino)phenoxy)-7-methoxy-6-quinolinecarboxamide] | 3.2
